Assay results as given in ChEMBL document CHEMBL4219190, “Studies on synthesis of novel pyrido[2,3-d]pyrimidine derivatives, evaluation of their antimicrobial activity and molecular docking” (Bioorg Med Chem Lett, 2018).
In brackets after ≈: the same amount, converted by molar mass. Activity calls are given as the source filed them. The rule behind the calls is not given here.

How the values were obtained:
Micrococcus luteus [1] = assay: Antibacterial activity against Micrococcus luteus MTCC 2470 after 24 hrs by well diffusion method; format: functional
Bacillus subtilis [2] = assay: Antibacterial activity against Bacillus subtilis MTCC 121 after 24 hrs by well diffusion method; format: functional
Staphylococcus aureus [3] = assay: Antibacterial activity against Staphylococcus aureus MLS16 MTCC 2940 after 24 hrs by well diffusion method; format: functional
Escherichia coli [4] = assay: Antibacterial activity against Escherichia coli MTCC 739 after 24 hrs by well diffusion method; format: functional
Staphylococcus aureus [5] = assay: Antibacterial activity against Staphylococcus aureus MTCC 96 after 24 hrs by well diffusion method; format: functional
Pseudomonas aeruginosa [6] = assay: Antibacterial activity against Pseudomonas aeruginosa MTCC 2453 after 24 hrs by well diffusion method; format: functional
Raoultella planticola [7] = assay: Antibacterial activity against Klebsiella planticola MTCC 530 after 24 hrs by well diffusion method; format: functional
Candida parapsilosis [8] = assay: Fungicidal activity against Candida parapsilosis MTCC 1744 incubated for 24 hrs followed by transfer of microbial suspension to Sabouraud dextrose agar plates and measured after 24 hrs post transfer; format: functional
Candida albicans [9] = assay: Fungicidal activity against Candida albicans MTCC 7315 incubated for 24 hrs followed by transfer of microbial suspension to Sabouraud dextrose agar plates and measured after 24 hrs post transfer; format: functional; conditions: MTCC 7315, 24 h
Candida albicans [10] = assay: Fungicidal activity against Candida albicans MTCC 3958 incubated for 24 hrs followed by transfer of microbial suspension to Sabouraud dextrose agar plates and measured after 24 hrs post transfer; format: functional
Candida albicans [11] = assay: Antifungal activity against Candida albicans MTCC 4748 after 24 hrs by well diffusion method; format: functional
Candida albicans [12] = assay: Fungicidal activity against Candida albicans MTCC 4748 incubated for 24 hrs followed by transfer of microbial suspension to Sabouraud dextrose agar plates and measured after 24 hrs post transfer; format: functional
Candida albicans [13] = assay: Fungicidal activity against Candida albicans MTCC 3017 incubated for 24 hrs followed by transfer of microbial suspension to Sabouraud dextrose agar plates and measured after 24 hrs post transfer; format: functional; conditions: MTCC 3017, 24 h
Candida albicans [14] = assay: Fungicidal activity against Candida albicans MTCC 183 incubated for 24 hrs followed by transfer of microbial suspension to Sabouraud dextrose agar plates and measured after 24 hrs post transfer; format: functional; conditions: MTCC 183, 24 h
Candida albicans [15] = assay: Antifungal activity against Candida albicans MTCC 183 after 24 hrs by well diffusion method; format: functional; conditions: MTCC 183, 24 h
[Candida] aaseri [16] = Fungicidal activity against Candida aaseri MTCC 1962 incubated for 24 hrs followed by transfer of microbial suspension to Sabouraud dextrose agar plates and measured after 24 hrs post transfer; format: functional; conditions: Yamadazyma aaseri, MTCC 1962, 24 h
Candida albicans [17] = assay: Antifungal activity against Candida albicans MTCC 3018 after 24 hrs by well diffusion method; format: functional
[Candida] aaseri [18] = Antifungal activity against Candida aaseri MTCC 1962 after 24 hrs by well diffusion method; format: functional; conditions: Yamadazyma aaseri, MTCC 1962, 24 h
Candida albicans [19] = assay: Antifungal activity against Candida albicans MTCC 227 after 24 hrs by well diffusion method; format: functional; conditions: MTCC 227, 24 h
Nakaseomyces glabratus [20] = assay: Fungicidal activity against Candida glabrata MTCC 3019 incubated for 24 hrs followed by transfer of microbial suspension to Sabouraud dextrose agar plates and measured after 24 hrs post transfer; format: functional; conditions: MTCC 3019, 24 h
Candida albicans [21] = assay: Fungicidal activity against Candida albicans MTCC 1637 incubated for 24 hrs followed by transfer of microbial suspension to Sabouraud dextrose agar plates and measured after 24 hrs post transfer; format: functional
Candida parapsilosis [22] = assay: Antifungal activity against Candida parapsilosis MTCC 1744 after 24 hrs by well diffusion method; format: functional
Candida albicans [23] = assay: Antifungal activity against Candida albicans MTCC 854 after 24 hrs by well diffusion method; format: functional; conditions: MTCC 854, 24 h
Pichia sporocuriosa [24] = assay: Fungicidal activity against Issatchenkia hanoiensis MTCC 4755 incubated for 24 hrs followed by transfer of microbial suspension to Sabouraud dextrose agar plates and measured after 24 hrs post transfer; format: functional; conditions: MTCC 4755, 24 h
Nakaseomyces glabratus [25] = assay: Antifungal activity against Candida glabrata MTCC 3019 after 24 hrs by well diffusion method; format: functional; conditions: MTCC 3019, 24 h
Pichia kudriavzevii [26] = assay: Fungicidal activity against Candida krusei MTCC 3020 incubated for 24 hrs followed by transfer of microbial suspension to Sabouraud dextrose agar plates and measured after 24 hrs post transfer; format: functional; conditions: MTCC 3020, 24 h
Candida albicans [27] = assay: Antifungal activity against Candida albicans MTCC 1637 after 24 hrs by well diffusion method; format: functional
Candida albicans [28] = assay: Antifungal activity against Candida albicans MTCC 3958 after 24 hrs by well diffusion method; format: functional
Candida albicans [29] = assay: Fungicidal activity against Candida albicans MTCC 854 incubated for 24 hrs followed by transfer of microbial suspension to Sabouraud dextrose agar plates and measured after 24 hrs post transfer; format: functional; conditions: MTCC 854, 24 h
Candida albicans [30] = assay: Antifungal activity against Candida albicans MTCC 3017 after 24 hrs by well diffusion method; format: functional; conditions: MTCC 3017, 24 h
Candida albicans [31] = assay: Fungicidal activity against Candida albicans MTCC 3018 incubated for 24 hrs followed by transfer of microbial suspension to Sabouraud dextrose agar plates and measured after 24 hrs post transfer; format: functional
Candida albicans [32] = assay: Antifungal activity against Candida albicans MTCC 7315 after 24 hrs by well diffusion method; format: functional; conditions: MTCC 7315, 24 h
Pichia kudriavzevii [33] = assay: Antifungal activity against Candida krusei MTCC 3020 after 24 hrs by well diffusion method; format: functional; conditions: MTCC 3020, 24 h
Candida albicans [34] = assay: Fungicidal activity against Candida albicans MTCC 227 incubated for 24 hrs followed by transfer of microbial suspension to Sabouraud dextrose agar plates and measured after 24 hrs post transfer; format: functional; conditions: MTCC 227, 24 h
Pichia sporocuriosa [35] = assay: Antifungal activity against Issatchenkia hanoiensis MTCC 4755 after 24 hrs by well diffusion method; format: functional; conditions: MTCC 4755, 24 h
Bacillus subtilis [36] = assay: Bactericidal activity against Bacillus subtilis MTCC 121 incubated for 24 hrs followed by transfer of microbial suspension to Mueller Hinton agar plates and measured after 24 hrs post transfer; format: functional; conditions: MTCC 121, 24 h
Micrococcus luteus [37] = assay: Bactericidal activity against Micrococcus luteus MTCC 2470 incubated for 24 hrs followed by transfer of microbial suspension to Mueller Hinton agar plates and measured after 24 hrs post transfer; format: functional; conditions: MTCC 2470, 24 h
Escherichia coli [38] = assay: Bactericidal activity against Escherichia coli MTCC 739 incubated for 24 hrs followed by transfer of microbial suspension to Mueller Hinton agar plates and measured after 24 hrs post transfer; format: functional; conditions: MTCC 739, 24 h
Pseudomonas aeruginosa [39] = assay: Antibiofilm activity against Pseudomonas aeruginosa MTCC 2453 after 24 hrs by crystal violet staining-based assay; format: functional, organism-based; conditions: Pseudomonas aeruginosa, MTCC 2453, 24 h; read-out: IC50
Pseudomonas aeruginosa [40] = assay: Bactericidal activity against Pseudomonas aeruginosa MTCC 2453 incubated for 24 hrs followed by transfer of microbial suspension to Mueller Hinton agar plates and measured after 24 hrs post transfer; format: functional; conditions: MTCC 2453, 24 h
Bacillus subtilis [41] = assay: Antibiofilm activity against Bacillus subtilis MTCC 121 after 24 hrs by crystal violet staining-based assay; format: functional, organism-based; conditions: Bacillus subtilis, MTCC 121, 24 h; read-out: IC50
Raoultella planticola [42] = assay: Antibiofilm activity against Klebsiella planticola MTCC 530 after 24 hrs by crystal violet staining-based assay; format: functional, organism-based; conditions: Klebsiella planticola, MTCC 530, 24 h; read-out: IC50
Staphylococcus aureus [43] = assay: Antibiofilm activity against Staphylococcus aureus MTCC 96 after 24 hrs by crystal violet staining-based assay; format: functional, organism-based; conditions: Staphylococcus aureus, MTCC 96, 24 h; read-out: IC50
Raoultella planticola [44] = assay: Bactericidal activity against Klebsiella planticola MTCC 530 incubated for 24 hrs followed by transfer of microbial suspension to Mueller Hinton agar plates and measured after 24 hrs post transfer; format: functional; conditions: MTCC 530, 24 h
Staphylococcus aureus [45] = assay: Antibiofilm activity against Staphylococcus aureus MLS16 MTCC 2940 after 24 hrs by crystal violet staining-based assay; format: functional, organism-based; conditions: Staphylococcus aureus, MLS16 MTCC 2940, 24 h; read-out: IC50
Staphylococcus aureus [46] = assay: Bactericidal activity against Staphylococcus aureus MTCC 96 incubated for 24 hrs followed by transfer of microbial suspension to Mueller Hinton agar plates and measured after 24 hrs post transfer; format: functional; conditions: MTCC 96, 24 h
Staphylococcus aureus [47] = assay: Bactericidal activity against Staphylococcus aureus MLS16 MTCC 2940 incubated for 24 hrs followed by transfer of microbial suspension to Mueller Hinton agar plates and measured after 24 hrs post transfer; format: functional; conditions: MLS16 MTCC 2940, 24 h

## CCCNC(=O)c1nc(-c2ccc(OC)cc2)c2c(C(F)(F)F)cc(-c3ccccc3)nc2n1
Micrococcus luteus [1]
  MIC: inactive
Bacillus subtilis [2]
  MIC: inactive
Staphylococcus aureus [3]
  MIC: inactive
Escherichia coli [4]
  MIC: inactive
Staphylococcus aureus [5]
  MIC: inactive
Pseudomonas aeruginosa [6]
  MIC: inactive
Raoultella planticola [7]
  MIC: inactive

## CCCNC(=O)c1nc(-c2ccccc2)c2c(C(F)(F)F)cc(-c3ccccc3)nc2n1
Micrococcus luteus [1]
  MIC: inactive
Candida parapsilosis [8]
  MFC: inactive
Candida albicans [9]
  MFC: 31.2 µg/mL (≈ 71.5 µM)
Candida albicans [10]
  MFC: inactive
Bacillus subtilis [2]
  MIC: inactive
Candida albicans [11]
  MIC: inactive
Candida albicans [12]
  MFC: inactive
Candida albicans [13]
  MFC: 15.6 µg/mL (≈ 35.7 µM)
Candida albicans [14]
  MFC: 31.2 µg/mL (≈ 71.5 µM)
Candida albicans [15]
  MIC: 15.6 µg/mL (≈ 35.7 µM)
[Candida] aaseri [16]
  MFC: 15.6 µg/mL (≈ 35.7 µM)
Candida albicans [17]
  MIC: inactive
Staphylococcus aureus [3]
  MIC: inactive
[Candida] aaseri [18]
  MIC: 15.6 µg/mL (≈ 35.7 µM)
Candida albicans [19]
  MIC: 31.2 µg/mL (≈ 71.5 µM)
Nakaseomyces glabratus [20]
  MFC: 15.6 µg/mL (≈ 35.7 µM)
Escherichia coli [4]
  MIC: inactive
Candida albicans [21]
  MFC: inactive
Candida parapsilosis [22]
  MIC: inactive
Candida albicans [23]
  MIC: 31.2 µg/mL (≈ 71.5 µM)
Pichia sporocuriosa [24]
  MFC: 62.5 µg/mL (≈ 143 µM)
Nakaseomyces glabratus [25]
  MIC: 7.8 µg/mL (≈ 17.9 µM)
Pichia kudriavzevii [26]
  MFC: 31.2 µg/mL (≈ 71.5 µM)
Candida albicans [27]
  MIC: inactive
Candida albicans [28]
  MIC: inactive
Candida albicans [29]
  MFC: 62.5 µg/mL (≈ 143 µM)
Candida albicans [30]
  MIC: 15.6 µg/mL (≈ 35.7 µM)
Candida albicans [31]
  MFC: inactive
Candida albicans [32]
  MIC: 15.6 µg/mL (≈ 35.7 µM)
Staphylococcus aureus [5]
  MIC: inactive
Pseudomonas aeruginosa [6]
  MIC: inactive
Pichia kudriavzevii [33]
  MIC: 15.6 µg/mL (≈ 35.7 µM)
Candida albicans [34]
  MFC: 31.2 µg/mL (≈ 71.5 µM)
Raoultella planticola [7]
  MIC: inactive
Pichia sporocuriosa [35]
  MIC: 31.2 µg/mL (≈ 71.5 µM)

## O=C(O)c1cn(C2CC2)c2cc(N3CCNCC3)c(F)cc2c1=O [CIPROFLOXACIN]
Micrococcus luteus [1]; MTCC 2470, 24 h
  MIC: 0.9 µg/mL (≈ 2.72 µM)
Bacillus subtilis [2]; MTCC 121, 24 h
  MIC: 0.9 µg/mL (≈ 2.72 µM)
Staphylococcus aureus [3]; MLS16 MTCC 2940, 24 h
  MIC: 0.9 µg/mL (≈ 2.72 µM)
Bacillus subtilis [36]
  MBC: 0.58 µg/mL (≈ 1.75 µM)
Escherichia coli [4]; MTCC 739, 24 h
  MIC: 0.9 µg/mL (≈ 2.72 µM)
Micrococcus luteus [37]
  MBC: 1.17 µg/mL (≈ 3.53 µM)
Escherichia coli [38]
  MBC: 0.58 µg/mL (≈ 1.75 µM)
Pseudomonas aeruginosa [39]
  IC50: 0.32 µg/mL (≈ 0.966 µM)
Pseudomonas aeruginosa [40]
  MBC: 1.17 µg/mL (≈ 3.53 µM)
Bacillus subtilis [41]
  IC50: 0.23 µg/mL (≈ 0.694 µM)
Raoultella planticola [42]
  IC50: 0.29 µg/mL (≈ 0.875 µM)
Staphylococcus aureus [5]; MTCC 96, 24 h
  MIC: 0.9 µg/mL (≈ 2.72 µM)
Pseudomonas aeruginosa [6]; MTCC 2453, 24 h
  MIC: 0.9 µg/mL (≈ 2.72 µM)
Staphylococcus aureus [43]
  IC50: 0.21 µg/mL (≈ 0.634 µM)
Raoultella planticola [44]
  MBC: 0.58 µg/mL (≈ 1.75 µM)
Raoultella planticola [7]; MTCC 530, 24 h
  MIC: 0.9 µg/mL (≈ 2.72 µM)
Staphylococcus aureus [45]
  IC50: 0.24 µg/mL (≈ 0.724 µM)
Staphylococcus aureus [46]
  MBC: 0.58 µg/mL (≈ 1.75 µM)
Staphylococcus aureus [47]
  MBC: 1.17 µg/mL (≈ 3.53 µM)

## COc1ccc(-c2nc(C(=O)NCc3ccccc3)nc3nc(-c4ccccc4)cc(C(F)(F)F)c23)cc1
Micrococcus luteus [1]
  MIC: inactive
Bacillus subtilis [2]
  MIC: inactive
Staphylococcus aureus [3]
  MIC: inactive
Escherichia coli [4]
  MIC: inactive
Staphylococcus aureus [5]
  MIC: inactive
Pseudomonas aeruginosa [6]
  MIC: inactive
Raoultella planticola [7]
  MIC: inactive

## COc1ccc(-c2nc(C(=O)NCCO)nc3nc(-c4ccccc4)cc(C(F)(F)F)c23)cc1
Micrococcus luteus [1]
  MIC: inactive
Bacillus subtilis [2]
  MIC: inactive
Staphylococcus aureus [3]
  MIC: inactive
Escherichia coli [4]
  MIC: inactive
Staphylococcus aureus [5]
  MIC: inactive
Pseudomonas aeruginosa [6]
  MIC: inactive
Raoultella planticola [7]
  MIC: inactive
